Experimental data taken from US11006631B2, “Substituted pyrimidinyloxy pyridine derivatives as herbicides” (FMC Corporation, priority 2015, dated 2021).

What was measured:
Assay type in all cases: in vivo
[1] = tested on: barnyardgrass (Echinochloa crus-galli); test: Test A postemergence, barnyardgrass; conditions: 0 to 100 scale
Description: (§1) Seeds of plant species selected from bamyardgrass (Echinochloa crus-galli), kochia (Kochia scoparia), ragweed (common ragweed, Ambrosia elatior), ryegrass, Italian (Italian ryegrass, Lolium multiflorum), foxtail, giant (giant foxtail, Setaria faberii), pigweed (Amaranthus retroflexus), crabgrass, large (large crabgrass, Digitaria sanguinalis), momingglory (Ipomoea spp.), velvetleaf (Abutilon theophrasti), wheat (Triticum aestivum), and corn (Zea mays) were planted into a blend of loam soil and sand and treated preemergence with a directed soil spray using test chemicals formulated in a non-phytotoxic solvent mixture which included a surfactant. At the same time, plants selected from these crop and weed species and also blackgrass (Alopecurus myosuroides), and galium (catchweed bedstraw, Galium aparine) were planted in pots containing the same blend of loam soil and sand and treated with postemergence applications of test chemicals formulated in the same manner. Plants ranged in height from 2 to 10 cm and were in the one- to two-leaf stage for the postemergence treatment. Treated plants and untreated controls were maintained in a greenhouse for approximately 10 days, after which time all treated plants were compared to untreated controls and visually evaluated for injury. Plant response ratings, summarized in Table A, are based on a 0 to 100 scale where 0 is no effect and 100 is complete control. A dash (-) response means no test result.

corn (Zea mays) [2] = test: Test A postemergence, corn; conditions: 0 to 100 scale
Description: as §1

[3] = tested on: foxtail, giant (giant foxtail, Setaria faberii); test: Test A preemergence, foxtail, giant; conditions: 0 to 100 scale
Description: as §1

[4] = tested on: crabgrass, large (large crabgrass, Digitaria sanguinalis); test: Test A preemergence, crabgrass, large; conditions: 0 to 100 scale
Description: as §1

[5] = tested on: pigweed (Amaranthus retroflexus); test: Test A postemergence, pigweed; conditions: 0 to 100 scale
Description: as §1

[6] = tested on: ducksalad (Heteranthera limosa); test: Test B flooded paddy test, ducksalad; conditions: Flood, 250 g ai/ha; scale of 0 to 100
Protocol: (§2) Plant species in the flooded paddy test selected from rice (Oryza sativa), sedge, umbrella (small-flower umbrella sedge, Cyperus difformis), ducksalad (Heteranthera limosa), and barnyardgrass (Echinochloa crus-galli) were grown to the 2-leaf stage for testing. At time of treatment, test pots were flooded to 3 cm above the soil surface, treated by application of test compounds directly to the paddy water, and then maintained at that water depth for the duration of the test. Treated plants and controls were maintained in a greenhouse for 13 to 15 days, after which time all species were compared to controls and visually evaluated. Plant response ratings, summarized in Table B, are based on a scale of 0 to 100 where 0 is no effect and 100 is complete control. A dash (-) response means no test result.

[7] = tested on: morningglory (Ipomoea spp.); test: Test A preemergence, morningglory; conditions: 0 to 100 scale
Description: as §1

[8] = tested on: pigweed (Amaranthus retroflexus); test: Test A preemergence, pigweed; conditions: 0 to 100 scale
Description: as §1

[9] = tested on: morningglory (Ipomoea spp.); test: Test A postemergence, morningglory; conditions: 0 to 100 scale
Description: as §1

[10] = tested on: wheat (Triticum aestivum); test: Test A preemergence, wheat; conditions: 0 to 100 scale
Description: as §1

[11] = tested on: wheat (Triticum aestivum); test: Test A postemergence, wheat; conditions: 0 to 100 scale
Description: as §1

[12] = tested on: sedge, umbrella (small-flower umbrella sedge, Cyperus difformis); test: Test B flooded paddy test, sedge, umbrella; conditions: Flood, 250 g ai/ha; scale of 0 to 100
Protocol: as §2

corn (Zea mays) [13] = test: Test A preemergence, corn; conditions: 0 to 100 scale
Description: as §1

[14] = tested on: barnyardgrass (Echinochloa crus-galli); test: Test B flooded paddy test, barnyardgrass; conditions: Flood, 250 g ai/ha; scale of 0 to 100
Protocol: as §2

[15] = tested on: foxtail, giant (giant foxtail, Setaria faberii); test: Test A postemergence, foxtail, giant; conditions: 0 to 100 scale
Description: as §1

[16] = tested on: velvetleaf (Abutilon theophrasti); test: Test A preemergence, velvetleaf; conditions: 0 to 100 scale
Description: as §1

[17] = tested on: crabgrass, large (large crabgrass, Digitaria sanguinalis); test: Test A postemergence, crabgrass, large; conditions: 0 to 100 scale
Description: as §1

[18] = tested on: velvetleaf (Abutilon theophrasti); test: Test A postemergence, velvetleaf; conditions: 0 to 100 scale
Description: as §1

[19] = tested on: barnyardgrass (Echinochloa crus-galli); test: Test A preemergence, barnyardgrass; conditions: 0 to 100 scale
Description: as §1

rice (Oryza sativa) = test: Test B flooded paddy test, rice; conditions: Flood, 250 g ai/ha; scale of 0 to 100
Protocol: as §2

## Cc1cnn(-c2ncccc2Oc2ncc(Cl)cn2)c1 [Compound 3]
[1]; 125 g ai/ha
  Plant response rating, Barnyardgrass: 0
[1]; 500 g ai/ha
  Plant response rating, Barnyardgrass: 10
Corn (Zea mays) [2]; 125 g ai/ha
  Plant response rating, Corn: 0
Corn (Zea mays) [2]; 500 g ai/ha
  Plant response rating, Corn: 10
[3]; 125 g ai/ha
  Plant response rating, Foxtail, Giant: 0
[3]; 500 g ai/ha
  Plant response rating, Foxtail, Giant: 0
[4]; 125 g ai/ha
  Plant response rating, Crabgrass, Large: 0
[4]; 500 g ai/ha
  Plant response rating, Crabgrass, Large: 0
[5]; 125 g ai/ha
  Plant response rating, Pigweed: 10
[5]; 500 g ai/ha
  Plant response rating, Pigweed: 40
[6]
  Plant response rating, Ducksalad: 0
[7]; 125 g ai/ha
  Plant response rating, Morningglory: 0
[7]; 500 g ai/ha
  Plant response rating, Morningglory: 0
[8]; 125 g ai/ha
  Plant response rating, Pigweed: 0
[8]; 500 g ai/ha
  Plant response rating, Pigweed: 10
[9]; 125 g ai/ha
  Plant response rating, Morningglory: 20
[9]; 500 g ai/ha
  Plant response rating, Morningglory: 30
[10]; 125 g ai/ha
  Plant response rating, Wheat: 0
[10]; 500 g ai/ha
  Plant response rating, Wheat: 0
[11]; 125 g ai/ha
  Plant response rating, Wheat: 10
[11]; 500 g ai/ha
  Plant response rating, Wheat: 10
[12]
  Plant response rating, Sedge, Umbrella: 60
Corn (Zea mays) [13]; 125 g ai/ha
  Plant response rating, Corn: 0
Corn (Zea mays) [13]; 500 g ai/ha
  Plant response rating, Corn: 0
[14]
  Plant response rating, Barnyardgrass: 0
[15]; 125 g ai/ha
  Plant response rating, Foxtail, Giant: 0
[15]; 500 g ai/ha
  Plant response rating, Foxtail, Giant: 10
[16]; 125 g ai/ha
  Plant response rating, Velvetleaf: 0
[16]; 500 g ai/ha
  Plant response rating, Velvetleaf: 0
[17]; 125 g ai/ha
  Plant response rating, Crabgrass, Large: 10
[17]; 500 g ai/ha
  Plant response rating, Crabgrass, Large: 10
[18]; 125 g ai/ha
  Plant response rating, Velvetleaf: 10
[18]; 500 g ai/ha
  Plant response rating, Velvetleaf: 20
[19]; 125 g ai/ha
  Plant response rating, Barnyardgrass: 0
[19]; 500 g ai/ha
  Plant response rating, Barnyardgrass: 0
Rice (Oryza sativa)
  Plant response rating, Rice: 0

## Clc1cnc(Oc2cccnc2-n2cc(Cl)cn2)nc1 [Compound 2, 5-chloro-2-[[2-(4-chloro-1H-pyrazol-1-yl)-3-pyridinyl]oxy]pyrimidine]
[1]; 125 g ai/ha
  Plant response rating, Barnyardgrass: 0
[1]; 500 g ai/ha
  Plant response rating, Barnyardgrass: 20
Corn (Zea mays) [2]; 125 g ai/ha
  Plant response rating, Corn: 0
Corn (Zea mays) [2]; 500 g ai/ha
  Plant response rating, Corn: 10
[3]; 125 g ai/ha
  Plant response rating, Foxtail, Giant: 10
[3]; 500 g ai/ha
  Plant response rating, Foxtail, Giant: 80
[4]; 500 g ai/ha
  Plant response rating, Crabgrass, Large: 100
[5]; 125 g ai/ha
  Plant response rating, Pigweed: 100
[5]; 500 g ai/ha
  Plant response rating, Pigweed: 100
[6]
  Plant response rating, Ducksalad: 80
[7]; 125 g ai/ha
  Plant response rating, Morningglory: 0
[7]; 500 g ai/ha
  Plant response rating, Morningglory: 0
[8]; 125 g ai/ha
  Plant response rating, Pigweed: 70
[8]; 500 g ai/ha
  Plant response rating, Pigweed: 90
[9]; 125 g ai/ha
  Plant response rating, Morningglory: 40
[9]; 500 g ai/ha
  Plant response rating, Morningglory: 80
[10]; 125 g ai/ha
  Plant response rating, Wheat: 0
[10]; 500 g ai/ha
  Plant response rating, Wheat: 10
[11]; 125 g ai/ha
  Plant response rating, Wheat: 10
[11]; 500 g ai/ha
  Plant response rating, Wheat: 20
[12]
  Plant response rating, Sedge, Umbrella: 75
Corn (Zea mays) [13]; 125 g ai/ha
  Plant response rating, Corn: 0
Corn (Zea mays) [13]; 500 g ai/ha
  Plant response rating, Corn: 0
[14]
  Plant response rating, Barnyardgrass: 0
[15]; 125 g ai/ha
  Plant response rating, Foxtail, Giant: 0
[15]; 500 g ai/ha
  Plant response rating, Foxtail, Giant: 30
[16]; 125 g ai/ha
  Plant response rating, Velvetleaf: 10
[16]; 500 g ai/ha
  Plant response rating, Velvetleaf: 30
[17]; 125 g ai/ha
  Plant response rating, Crabgrass, Large: 10
[17]; 500 g ai/ha
  Plant response rating, Crabgrass, Large: 40
[18]; 125 g ai/ha
  Plant response rating, Velvetleaf: 20
[18]; 500 g ai/ha
  Plant response rating, Velvetleaf: 70
[19]; 125 g ai/ha
  Plant response rating, Barnyardgrass: 0
[19]; 500 g ai/ha
  Plant response rating, Barnyardgrass: 40
Rice (Oryza sativa)
  Plant response rating, Rice: 0
